From patent US20160046582A1 (Teva Pharmaceutical Industries Ltd., priority 2014, published 2016)
Where two headings read alike, the source gives them in different places.

Tests used:
[1] = Hygroscopicity; assay type: physicochemical; details: exposure to air
[2] = Chemical stability observed on handling or purification; assay type: physicochemical; details: most organic solvents and aqueous acidic medium
[3] = Particle size distribution by Malvern laser diffraction (Mastersizer S); assay type: physicochemical; details: for PSD by Malvern D(0.9) / PSD by Malvern d(0.1) / PSD by Malvern d(0.5): modified pilot scale, 2.5 kg batch
Protocol: The particle size distributions were measured by Malvern Laser Diffraction, using the Mastersizer S model. Laser diffraction relies on the fact that diffraction angle of light is inversely proportional to particle size. Properties of particles are measured and interpreted as measurements of a sphere (a sphere being the only shape that can be described by one unique number). In addition, laser diffraction calculates a particle size distribution based around volume terms, thus eliminating particle count from the determination of particle size. The Mastersizer S model measures particles using a single technique and a single range setting.
D(0.1) is the particle size, in microns, below which 10% by volume distribution of the population is found. D(0.5) is the particle size, in microns, below which 50% by volume distribution of the population is found. D(0.9) is the particle size, in microns, below which 90% by volume distribution of the population is found.

[4] = Tapped density of powder (Quantachrome Dual Autotap, 1250 taps); assay type: physicochemical; details: production scale
Text: • 1. Put the same cylinder used to calculate Bulk Density in a Quantachrome Dual Autotap instrument; • 2. Perform 1250 taps; • 3. Read the tapped volume (Vf) to the nearest graduated unit; • 4. Calculate the tapped density in g/ml according to the following equation: TD=M/Vf; • 5. Perform steps 1-4 again and report the average data of duplicates.

[5] = Bulk density of powder; assay type: physicochemical; details: production scale
Protocol: • 1. Mix powder; • 2. Tare a 50 ml empty cylinder on a 0.01 g sensitivity balance; • 3. Transfer the powder, without compacting, to the cylinder being held at approximately a 45 degree angle to achieve an untapped apparent volume of 40 to 50 ml. • 4. Bring the cylinder containing the sample to a vertical position by a sharp move in order to level the volume for reading. • 5. Read the apparent volume (Va) to the nearest graduated unit; • 6. Weigh the cylinder with sample (the balance gives sample weight M); • 7. Calculate bulk density in g/ml according to the following equation: BD=M/Va; • 8. Perform steps 1-7 again and report the average data of duplicates.

[6] = prior art examples; cited from earlier work
[7] = cited from earlier work
[8] = Solubility in water (description of drug substance); assay type: physicochemical
Text: The solubility terms are defined below, in accordance with the United States Pharmacopoeia XXV.

[9] = cited from earlier work; remark: listed apart in the source
[10] = system: acute experimental autoimmune encephalomyelitis (aEAE) model; details: in vivo; cited from earlier work
[11] = system: active MRI lesions in relapsing MS; details: cited from earlier work
[12] = In vitro AMES test (CRL studies No. 962723 and No. 963892); assay type: cell-based; details: MCQ: pre-incubation method, CRL study No. 962723, MCQME: CRL study No. 963892
[13] = In vivo MN (Covance study No. 8246631)
[14] = laboratory scale, 25 g batch, prior art
[15] = laboratory scale recrystallization, 25 g
[16] = starting material of the recrystallization

With `CCN(C(=O)c1c(O)c2c(N(C)C[C@H](O)[C@@H](O)[C@H](O)[C@H](O)CO)cccc2n(C)c1=O)c1ccccc1` (stereo in doubt) [MEG-LAQ, N-ethyl-4-hydroxy-1-methyl-5-(methyl(2,3,4,5,6-pentahydroxyhexyl)amino)-2-oxo-N-phenyl-1,2-dihydroquinoline-3-carboxamide] the hygroscopicity [1] was “high hygroscopicity”.
In the case of `CCN(C(=O)c1c(O)c2c(O)cccc2n(C)c1=O)c1ccccc1` [Batch 5-HLAQ, N-ethyl-4,5-dihydroxy-1-methyl-2-oxo-N-phenyl-1,2-dihydroquinoline-3-carboxamide], the stability in solvents [2] is reported as “unstable”.
With `CCN(C(=O)c1c([O-])c2c(Cl)cccc2n(C)c1=O)c1ccccc1.[Na+]` [Batch C] the “PSD D(0.1)” value ([3]; production scale) was 4.1 μm, the “PSD D(0.5)” value ([3]; production scale) was 14.0 μm and the “PSD D(0.9)” value ([3]; production scale) was 32.0 μm. For the same compound, the “Tapped Density” value [4] was 0.609 g/mL and the “Bulk Density” value [5] was 0.308 g/mL.
For `CCN(C(=O)c1c([O-])c2c(Cl)cccc2n(C)c1=O)c1ccccc1.[Na+]` [Batch D], the “PSD D(0.5)” value ([3]; production scale) was 14.7 μm, the “PSD D(0.9)” value ([3]; production scale) was 33.6 μm and the “Bulk Density” value [5] was 0.288 g/mL.
For `CCN(C(=O)c1c([O-])c2c(Cl)cccc2n(C)c1=O)c1ccccc1.[Na+]` [Batch E], the “PSD D(0.1)” value ([3]; production scale) was 2.5 μm, the “PSD D(0.5)” value ([3]; production scale) was 9.5 μm and the “PSD D(0.9)” value ([3]; production scale) was 21.0 μm. The “Tapped Density” value [4] was 0.460 g/mL and the “Bulk Density” value [5] was 0.245 g/mL.
For `CCN(C(=O)c1c([O-])c2c(Cl)cccc2n(C)c1=O)c1ccccc1.[Na+]` [Example 13 of U.S. Pat. No. 7,884,208], the “Tapped Density (in words)” value [6] is listed as “high”.
In the case of `CCN(C(=O)c1c([O-])c2c(Cl)cccc2n(C)c1=O)c1ccccc1.[Na+]` [Example 14 of U.S. Pat. No. 7,884,208], the “Tapped Density (in words)” value [6] is listed as “undesired” and the “size of 10% or more of the total amount by volume of the particles” value ([7]; prior art example) is listed as “less than 5 microns”.
For `CCN(C(=O)c1c([O-])c2c(Cl)cccc2n(C)c1=O)c1ccccc1.[Na+]` [Example 15 from U.S. Pat. No. 7,884,208], the “PSD by Malvern D(0.9)” value [7, 14] is given as 51.8 um, the “PSD by Malvern d(0.1)” value [7, 14] is given as 6.1 um and the “PSD by Malvern d(0.5)” value [7, 14] is given as 21.2 um.
With `CCN(C(=O)c1c([O-])c2c(Cl)cccc2n(C)c1=O)c1ccccc1.[Na+]` [Laboratory Scale Batch A] the “PSD D(0.1)” value [3, 15] was 2.3 μm, the “PSD D(0.5)” value [3, 15] was 10.8 μm and the “PSD D(0.9)” value [3, 15] was 32.7 μm.
For `CCN(C(=O)c1c([O-])c2c(Cl)cccc2n(C)c1=O)c1ccccc1.[Na+]` [Laboratory Scale Batch B], the “PSD D(0.1)” value [3, 15] was 2.6 μm, the “PSD D(0.5)” value [3, 15] was 12.4 μm and the “PSD D(0.9)” value [3, 15] was 34.3 μm.
In the case of `CCN(C(=O)c1c([O-])c2c(Cl)cccc2n(C)c1=O)c1ccccc1.[Na+]` [Laquinimod sodium], the solubility in water [8] is given as “freely soluble” and the oral bioavailability [9] is given as “high”.
For `CCN(C(=O)c1c(O)c2c(Cl)cccc2n(C)c1=O)c1ccccc1` [Laquinimod, N-ethyl-N-phenyl-1,2,-dihydro-4-hydroxy-5-chloro-1-methyl-2-oxoquinoline-3-carboxamide], the “efficacy in aEAE model” value [10] is listed as “effective” and the “development of active MRI lesions” value [11] is listed as “can reduce development of active MRI lesions”.
With `Cn1c(=O)cc(O)c2c(Cl)cccc21` [MCQ, 5-chloro-4-hydroxy-1-methylquinolin-2(1H)-one] the “AMES test genotoxic activity” value [12] was “AMES data negative in the pre-incubation”.
For `COC(=O)c1c(O)c2c(Cl)cccc2n(C)c1=O` [MCQME, methyl 5-chloro-4-hydroxy-1-methyl-2-oxo-1,2-dihydroquinoline-3-carboxylate], the “AMES test genotoxic activity” value [12] was “Weak genotoxic activity in the in vitro” and the “in vivo MN” value [13] was “negative in the in vivo MN”.
For `CCN(C(=O)c1c([O-])c2c(Cl)cccc2n(C)c1=O)c1ccccc1.[Na+]` [Pilot Scale Batch A], the “PSD by Malvern D(0.9)” value [3] was 33.8 um, the “PSD by Malvern d(0.1)” value [3] was 3.3 um and the “PSD by Malvern d(0.5)” value [3] was 12.9 um.
In the case of `CCN(C(=O)c1c([O-])c2c(Cl)cccc2n(C)c1=O)c1ccccc1.[Na+]` [Pilot Scale Batch B], the “PSD by Malvern D(0.9)” value [3] is reported as 33.9 um, the “PSD by Malvern d(0.1)” value [3] is reported as 4.1 um and the “PSD by Malvern d(0.5)” value [3] is reported as 13.5 um.
For `CCN(C(=O)c1c([O-])c2c(Cl)cccc2n(C)c1=O)c1ccccc1.[Na+]` [crude laquinimod sodium], the “particle size d(0.1)” value [3, 16] was 1-2 μ, the “particle size d(0.5)” value [3, 16] was 6-11 μ and the “particle size d(0.9)” value [3, 16] was 20-35 μ.
